A short description of assay [1]: Metal chelating activity of the compound assessed as formation of iron complex at 20 uM after 30 mins by UV-vis spectrophotometric analysis. It counts as functional.
The nature of assay [2]: Metal chelating activity of the compound assessed as formation of calcium complex at 20 uM after 30 mins by UV-vis spectrophotometric analysis. It counts as functional.
Assay [3] is described as follows: Metal chelating activity of the compound assessed as formation of zinc complex at 20 uM after 30 mins by UV-vis spectrophotometric analysis. It counts as functional.
In assay [4] the target is Cholinesterase (Equus caballus, UniProt P81908).
Sequence of Cholinesterase (P81908 whole entry): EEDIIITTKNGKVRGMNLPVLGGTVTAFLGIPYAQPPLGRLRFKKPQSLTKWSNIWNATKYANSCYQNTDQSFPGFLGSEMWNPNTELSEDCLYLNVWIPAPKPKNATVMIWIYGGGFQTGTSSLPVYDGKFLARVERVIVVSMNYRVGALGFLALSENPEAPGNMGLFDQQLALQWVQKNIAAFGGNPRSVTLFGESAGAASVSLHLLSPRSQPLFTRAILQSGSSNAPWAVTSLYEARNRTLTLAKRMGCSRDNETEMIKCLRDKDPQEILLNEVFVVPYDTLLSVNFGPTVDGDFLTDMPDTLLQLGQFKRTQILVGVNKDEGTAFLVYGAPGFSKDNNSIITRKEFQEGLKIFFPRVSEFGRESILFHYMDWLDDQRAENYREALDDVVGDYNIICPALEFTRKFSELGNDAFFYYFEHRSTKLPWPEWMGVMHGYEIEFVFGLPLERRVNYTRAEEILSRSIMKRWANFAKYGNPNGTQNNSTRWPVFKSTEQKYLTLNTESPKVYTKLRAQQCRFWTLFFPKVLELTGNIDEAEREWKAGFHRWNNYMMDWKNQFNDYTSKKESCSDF
Description: Inhibition of horse serum butyrylcholinesterase using butylthiocholine as substrate incubated for 15 mins followed by substrate addition measured for 2 mins by Ellman's method
Assay [5] in a line: Metal chelating activity of the compound assessed as formation of potassium complex at 20 uM after 30 mins by UV-vis spectrophotometric analysis. It counts as functional.
Assay [6] deals with Acetylcholinesterase (Homo sapiens) (UniProt P22303). As to the kind of experiment: Ratio of compound activity to tacrine activity for inhibition of acetylcholinesterase (unknown origin)-induced amyloid beta(1 to 42) aggregation.
Sequence of Acetylcholinesterase (Homo sapiens) (P22303 whole entry): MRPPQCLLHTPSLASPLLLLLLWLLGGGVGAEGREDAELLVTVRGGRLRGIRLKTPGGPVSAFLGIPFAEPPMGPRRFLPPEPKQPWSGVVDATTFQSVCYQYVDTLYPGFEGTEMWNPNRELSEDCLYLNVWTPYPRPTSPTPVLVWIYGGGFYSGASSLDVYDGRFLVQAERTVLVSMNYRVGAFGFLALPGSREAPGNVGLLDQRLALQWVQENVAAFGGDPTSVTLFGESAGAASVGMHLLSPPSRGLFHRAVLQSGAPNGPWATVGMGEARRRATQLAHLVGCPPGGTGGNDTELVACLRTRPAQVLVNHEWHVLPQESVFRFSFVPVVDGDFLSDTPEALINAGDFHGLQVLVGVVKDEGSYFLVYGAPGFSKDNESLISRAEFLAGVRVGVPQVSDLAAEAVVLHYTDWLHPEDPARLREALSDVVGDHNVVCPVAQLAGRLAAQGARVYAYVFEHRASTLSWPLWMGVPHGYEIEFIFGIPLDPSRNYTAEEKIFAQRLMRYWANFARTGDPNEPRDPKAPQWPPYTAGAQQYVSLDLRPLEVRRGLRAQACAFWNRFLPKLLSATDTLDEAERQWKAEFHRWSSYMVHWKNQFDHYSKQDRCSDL
Assay [7] has as its target Acetylcholinesterase (Electrophorus electricus) (UniProt O42275). The assay can be described thus: Mixed-type inhibition of electric eel AChE using acetylthiocholine as substrate at 0.125 to 2 nM after 15 mins by Lineweaver-Burk plot analysis.
Assay [8] has the same target. As to the kind of experiment: Inhibition of electric eel acetylcholinesterase using acetylthiocholine as substrate up to 100 uM incubated for 15 mins followed by substrate addition measured for 2 mins by Ellman's method relative to control. A general note: Ellman's reagent forms a yellow product with free thiols.
A short description of assay [9]: Metal chelating activity of the compound assessed as formation of sodium complex at 20 uM after 30 mins by UV-vis spectrophotometric analysis. It counts as functional.
Assay [10] has as its target Acetylcholinesterase (Electrophorus electricus, UniProt O42275).
Description: Inhibition of electric eel acetylcholinesterase using acetylthiocholine as substrate incubated for 15 mins followed by substrate addition measured for 2 mins by Ellman's method
Assay [11] addresses Acetylcholinesterase (Homo sapiens) (UniProt P22303). The assay can be described thus: Ratio of compound activity to curcumin activity for inhibition of acetylcholinesterase (unknown origin)-induced amyloid beta(1 to 42) aggregation.
Assay [12] in a line: Metal chelating activity of the compound assessed as formation of magnesium complex at 20 uM after 30 mins by UV-vis spectrophotometric analysis. It counts as functional.
Assay [13] in a line: Metal chelating activity of the compound assessed as formation of copper complex at 20 uM after 30 mins by UV-vis spectrophotometric analysis. It counts as functional.
Assay [14] is described as follows: cells. The conditions noted are these: Homo sapiens, SH-SY5Y, 48 h.
Description: Cytotoxicity against human SH-SY5Y cells assessed as cell viability after 48 hrs by MTT assay
Assay [15] is described as follows: Metal chelating activity of the compound assessed as formation of copper complex at 20 uM by molar ratio method. It counts as functional.
Assay [16] addresses Acetylcholinesterase (Electrophorus electricus) (UniProt O42275). As to the kind of experiment: Ratio of tacrine IC50 to compound IC50 for electric eel acetylcholinesterase.

Calls of active or inactive are those of the source. The calls are words filed in the database; no cut-off is given here. Bounds are passed on as bounds.

Sequence of Acetylcholinesterase (Electrophorus electricus) (O42275 24-633 limits assumed): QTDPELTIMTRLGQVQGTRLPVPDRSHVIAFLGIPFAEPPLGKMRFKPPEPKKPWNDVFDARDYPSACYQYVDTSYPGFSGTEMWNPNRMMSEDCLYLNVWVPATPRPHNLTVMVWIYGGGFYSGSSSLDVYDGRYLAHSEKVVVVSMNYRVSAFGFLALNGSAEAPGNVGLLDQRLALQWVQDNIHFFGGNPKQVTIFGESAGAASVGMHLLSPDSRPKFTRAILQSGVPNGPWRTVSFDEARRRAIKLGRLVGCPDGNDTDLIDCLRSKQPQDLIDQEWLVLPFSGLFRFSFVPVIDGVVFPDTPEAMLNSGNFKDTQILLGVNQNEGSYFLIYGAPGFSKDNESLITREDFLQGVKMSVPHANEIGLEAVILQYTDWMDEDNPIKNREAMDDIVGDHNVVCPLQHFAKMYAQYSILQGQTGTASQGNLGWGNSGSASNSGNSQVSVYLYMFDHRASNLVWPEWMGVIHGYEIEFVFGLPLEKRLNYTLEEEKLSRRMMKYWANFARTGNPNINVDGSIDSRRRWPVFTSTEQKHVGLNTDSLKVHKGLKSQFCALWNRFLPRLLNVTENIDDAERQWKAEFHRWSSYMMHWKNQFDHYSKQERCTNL
Sequence of Acetylcholinesterase (O42275 whole entry): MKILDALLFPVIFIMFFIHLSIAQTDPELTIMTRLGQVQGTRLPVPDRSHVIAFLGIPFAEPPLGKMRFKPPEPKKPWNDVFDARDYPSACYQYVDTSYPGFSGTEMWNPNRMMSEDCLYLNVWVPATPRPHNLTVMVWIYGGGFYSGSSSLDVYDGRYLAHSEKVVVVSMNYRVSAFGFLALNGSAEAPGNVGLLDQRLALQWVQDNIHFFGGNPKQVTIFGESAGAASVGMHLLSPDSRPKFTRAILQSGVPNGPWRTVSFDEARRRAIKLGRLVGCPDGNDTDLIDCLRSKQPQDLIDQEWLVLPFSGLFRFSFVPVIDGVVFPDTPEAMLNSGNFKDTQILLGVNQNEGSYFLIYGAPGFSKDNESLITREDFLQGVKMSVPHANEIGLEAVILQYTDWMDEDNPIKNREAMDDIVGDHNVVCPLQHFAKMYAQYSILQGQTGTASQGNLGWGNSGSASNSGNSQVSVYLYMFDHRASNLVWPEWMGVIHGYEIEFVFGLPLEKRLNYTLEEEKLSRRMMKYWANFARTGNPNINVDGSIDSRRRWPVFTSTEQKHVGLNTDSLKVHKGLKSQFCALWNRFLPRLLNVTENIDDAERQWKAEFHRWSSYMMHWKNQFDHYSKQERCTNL

Regarding `O=C(C[n+]1cccc(F)c1)Nc1ccc2nc3c4[nH]c5ccccc5c4ccn3c(=O)c2c1`, the result in [1], in assay [3], in [13] and in assay [15] was Active. Further, the outcome in assay [2], in [5], in assay [9] and in assay [12] was inactive. Besides, the 50% inhibitory concentration (IC50) is 1.86 µM in assay [4], 0.0006 µM in assay [10] and above 100 µM in assay [14]. Also, the Ratio was found to be 15.3 in assay [6] and 2.2 in assay [11]. Besides, the inhibition result in assay [7] is “Active”. In assay [8], this compound registered an inhibition of 20%. Also, the Ratio IC50 in assay [16] came to 160.

One may read the IC50 as the point on the concentration scale where inhibition reaches its midpoint. Lower therefore signals higher potency. As a reminder, the inhibition is the relative decrease from the control value, in per cent.

Values taken from ChEMBL document CHEMBL2375339, “Synthesis and evaluation of 7,8-dehydrorutaecarpine derivatives as potential multifunctional agents for the treatment of Alzheimer's disease” (Eur J Med Chem, 2013).
